Experimental data taken from US20240325574A1, “EXTRADOMAIN B FIBRONECTIN TARGETING PEPTIDES AND DERIVATIVES FOR CANCER IMAGING AND THERAPY” (MOLECULAR THERANOSTICS, LLC, priority 2023, published 2024).
Where no end group is shown, it is not given here. S0456 = NIR dye, conjugated to the peptide N-terminus

Assays:
[1] = target: EDB fragment (Homo sapiens, UniProt P02751); conditions: background, earlier work (U.S. Pat. No. 10,653,801); cited from earlier work
[2] = tested on: HSC3 HNC xenograft; test: Topical staining of exposed HSC3 HNC xenograft tumor, fluorescence imaging; type: in vivo, mouse; conditions: 1 drop of 40 μM applied topically, rinsed with PBS after 2 minutes
Excerpt: (§1) FIGS. 3A and 3B provide images showing (A) fluorescence images of the organ tissues of the mice received IV injection of ZD2-S0456, showing ZD2-S0456 binding to HSC3 HNC xenograft. 1: kidney; 2: heart; 3: spleen; 4: brain; 5: muscle; 6: tumor; 7: liver; 8: lung. […] (B) Fluorescence image of mice bearing HSC3 HNC xenografts topically stained with PBS or ZD2-Cy5.5.
(§2) The specific staining of ZD2-S0456 to human HNC tumors comparing to normal tissues was investigated after intravenous injection of ZD2-S0456 in mouse xenograft models (FIG. 3). Mice were injected with 10 nmol/mouse ZD2-S0456 or PBS and euthanized 60 minutes post injection to collect tumor tissue and major organs. […] Furthermore, ZD2-S0456 can identify the tumor margin by topical staining of mouse xenograft tumors. The skin atop the HSC3 HNC xenograft tumor was removed to expose the tumor while the mouse was under anesthesia. Then 1 drop of 40 μM ZD2-Cy5.5 was topically applied to the tumor and surrounding tissues, which was rinsed with PBS after 2 minutes.

[3] = tested on: HSC3 HNC xenograft; test: Fluorescence imaging of tumor and major organs after intravenous injection in HSC3 HNC xenograft mice; conditions: 10 nmol/mouse IV, 60 minutes post injection, ex vivo tissue imaging; no signal after PBS
Excerpt: as §1, §2

[4] = tested on: human breast cancer MDA-MB-231 TNBC xenograft; test: Fluorescence imaging after intravenous injection in MDA-MB-231 TNBC xenograft mice; type: in vivo; conditions: 10 nmol/mouse IV, imaged 60 minutes post injection
Description: FIG. 4 provide a fluorescence image of mouse bearing human breast cancer MDA-MB-231 TNBC xenograft after IV injection of ZD2-S0456, showing ZD2-S0456 staining to the tumor.
The specific staining of ZD2-S0456 to human TNBC tumors comparing to normal tissues was investigated after intravenous injection of ZD2-S0456 in mouse xenograft models (FIG. 4). Mouse were injected with 10 nmol/mouse ZD2-S0456 and imaged 60 minutes post injection.

EDB fragment, sequence (P02751 1271-1359 limits assumed): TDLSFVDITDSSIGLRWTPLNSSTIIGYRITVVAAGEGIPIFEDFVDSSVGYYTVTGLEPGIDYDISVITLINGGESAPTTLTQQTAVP

In the case of TVRTSAD [ZD2], the “Binding affinity to the EDB fragment” value [1] is listed as “moderate binding affinity”.

With “ZD2-Cy5.5: ZD2 targeted fluorescence dye (Cy5.5) (TVRTSAD; also: Cy5.5 dye conjugated)” the “Fluorescence signal on tumor vs surrounding tissues after topical staining” value [2] was “strong fluorescence signal on the tumor but not the surrounding tissues”.

In the case of “ZD2-S0456: ZD2 peptide with NIR dye S0456 conjugated to its N-terminus (S0456-TVRTSAD-OH)”, the “Fluorescence signal in the tumor” value [3] is reported as “strong signal in the tumor” and the “Fluorescence signal in the tumor compared to surrounding normal tissues” value [4] is reported as “stronger signal in the tumor”.
